Experimental data published in patent US6235761A, “Compound, composition and method for treating cancer” (priority 1999, dated 2001).

Legend:
[1] = system: MX-1 Mammary Tumor Xenograft; experiment: Subcutaneously-implanted MX-1 mammary tumor xenograft in mice (Table 1); type: in vivo, human tumor in mice; conditions: for Days to 2 Doublings / Non-Specific Deaths / Total / Tumor Free Survival/Total / Tumor Delay (T-C) / Tumor Regression, Complete / Tumor Regression, Partial / Duration of regression, Med: x5, from Day 12; for Tumor Delay (T-C): control 8.0 days; for Tumor Regression, Complete / Tumor Regression, Partial: number of mice
Protocol: (§1) This Example illustrates the efficacy of penclomedine and 4-demethylpenclomedine in the treatment of cancer. MX-1 mammary tumor xenograft was subcutaneously implanted into mice, and the mice were exposed to the compounds. The testing of the mice was performed following a published procedure. See, e.g., Plowman et al., supra; Geran et al., Cancer Chemother. Rep., Part 2, 1-55 (1972); Developmental Therapeutics Program, Division of Cancer Treatment, NCI, in In Vivo Models 1976-1982, NIH Publication No. 84-2635, Washington D.C., U.S. Govt. Printing Office (1984).
Response of Subcutaneously-Implanted MX-1 Mammary Tumor Xenograft to
^1 Treatment started on Day 12 following tumor implant.
^2 Nonspecific deaths: A treated, tumored animal was presumed to be a
^3 Tumor regression was scored (excluding nonspecific deaths),
^4 Duration of regression: the interval during which a tumor classified
^5 Evaluation size: this value is the tumor mass selected at one or two
^6 Time required for tumor mass doubling: the time required for a tumor
^7 T-C (days): the difference in the median of times postimplant for […]

[2] = Human plasma levels of penclomedine and demethylpenclomedine during 5 day penclomedine treatment; type: in vivo, human patients
Text: FIG. 1 depicts levels of penclomedine and the demethylpenclomedine metabolite in human plasma, as determined by HPLC chromatographic analysis with uv detection.
FIG. 2 depicts the penclomedine (gray shade) and demethylpenclomedine (white) levels in human plasma on each of five treatment days. Data are from a single patient and are typical. The same ordinate scale is used for both penclomedine and demethylpenclomedine. Pre-infusion levels are depicted without cross hatchings; end of infusion levels are depicted with cross hatchings.
A 1 ml aliquot of tissue homogenate or a […] was acidified with 200 ml of 0.7 M ammonium phosphate pH 2.7, then 3 ml of ethyl acetate was added. This mixture was vortexed, centrifuged and the organic layer was collected. Fifty microliters of DMSO were added, and the ethyl acetate was concentrated to approximately […] with a stream of dry nitrogen. Fifty microliters of acetonitrile were added to this residue, and the resulting solution was analyzed by HPLC. Human plasma was processed identically to mouse plasma with the exception that 500 ml of plasma was extracted. Concentrated cage washings were analyzed by HPLC without further processing.
HPLC Assays: The HPLC system consisted of a Hewlett-Packard Series II 1090 liquid chromatograph with diode array detector (Hewlett-Packard, Palo Alto, Calif.). The column used was an Alltech Adsorbosphere HS C18 5 m 250×4.6 mm column (Alltech Associates, Deerfield, Ill.). The system used a gradient elution consisting of 100% 10 mM ammonium phosphate buffer pH 2.7 progressing to 100% acetonitrile over 25 minutes at 1 ml/min. Detection was performed by means of ultraviolet absorbance at 240 nm as well as by means of radioactivity using a Radiomatic Flo-One/Beta A140 radioactive flow detector (Packard Instrument Co., Downers Grove, Ill.) equipped with a […] and Flo-Scint VI scintillation cocktail at a 2:1 ratio.
This example illustrates the distribution of penclomedine and 4-demethylpenclomedine in human plasma during a 5 day treatment schedule using penclomedine.
Plasma levels of the metabolite and penclomedine were determined in 9 patients during the 5 day treatment schedule. […] Demethylpenclomedine plasma levels were equal to penclomedine plasma levels by 10 min after end of the infusion and rose to 9.5 μM by 7 hrs. […] The ratio of demethylpenclomedine to penclomedine in the post-infusion plasma sample obtained on day 1 of treatment was approximately 1:1; however, impressive accumulation of demethylpenclomedine was noted during the five day treatment schedule and by the final day this ratio was often greater than 10. […] A summary of post-infusion demethylpenclomedine plasma levels determined on each day of treatment for 9 patients is set forth in Table 4.

MX-1 mammary tumor cells = experiment: ic MX-1 mammary tumor in athymic mice, increased life span (Table 2); type: in vivo, human tumor in athymic mice (Ncr-nu); conditions: days 1-5
Protocol: as §1
(§2) This Example further illustrates the efficacy of penclomedine and 4-demethylpenclomedine in the treatment of cancer. The compounds were tested in vivo on mice by the procedure set forth in Example 2. The results obtained are set forth in Table 2 and confirm that 4-demethyl-penclomedine is active against cancer, particularly mammary, colon, and renal cancer.
(§3) ^a Athymic mice (Ncr-nu) were implanted either intracranially (ic) with
(§4) […] MX-1 mammary tumor cells or subcutaneously (sc) with fragments of
(§5) human tumors (CAKI-, renal; HT29, colon; MX-1, mammary).
^c % ILS (increased life span) values are not provided where the mice
were sacrificed when tumors reached 4 g mass.

[3] = system: mammals, especially humans; experiment: Neurotoxicity of penclomedine versus 4-demethylpenclomedine; type: in vivo, human; conditions: for neurotoxicity versus metabolite levels: administration of penclomedine to patients
Protocol: It has been observed that 4-demethylpenclomedine was present in clinical samples and continued to be present in the plasma for longer than 24 hours.

MX-1 mammary tumor = experiment: sc MX-1 mammary tumor in athymic mice (Table 2); type: in vivo, human tumor in athymic mice (Ncr-nu)
Protocol: as §1, §2, §3, §4, §5
(§6) ^b The difference in the median of time poststaging for tumors to
(§7) double in mass: T (treated mice), C (control mice)

HT29 colon tumor = experiment: sc HT29 colon tumor in athymic mice (Table 2); type: in vivo, human tumor in athymic mice (Ncr-nu); conditions: for T-C / Tumor-Free Survival/Total: days 14-18
Protocol: as §1, §2, §3, §4, §5, §6, §7

[4] = 1 hr i.v. infusion penclomedine 315 mg/m^2
[5] = human plasma, single patient, FIG. 1
[6] = repeated administration of penclomedine
[7] = 135 mg/kg/dose oral, highest dosage level
[8] = 135 mg/kg/dose oral, highest dosage level, days 13-17
[9] = five day samples, same patient, FIG. 2

COc1nc(C(Cl)(Cl)Cl)c(Cl)c(O)c1Cl [4-Demethylpenclomedine, 3,5-dichloro-2-methoxy-4-hydroxy-6-(trichloromethyl)-pyridine]
Days to 2 Doublings ([1]; 60 mg/kg IP): 23.4 days
Non-Specific Deaths / Total ([1]; 60 mg/kg IP): 0/5
Tumor Free Survival/Total ([1]; 60 mg/kg IP): 2/5
Tumor Delay (T-C) ([1]; 60 mg/kg IP): 15.4 days
Tumor Regression, Complete ([1]; 60 mg/kg IP): 2
Tumor Regression, Partial ([1]; 60 mg/kg IP): 0
Days to 2 Doublings ([1]; 90 mg/kg IP): > 49.0 days
Duration of regression, Med ([1]; 90 mg/kg IP): 32.5 days
Non-Specific Deaths / Total ([1]; 90 mg/kg IP): 0/5
Tumor Free Survival/Total ([1]; 90 mg/kg IP): 3/5
Tumor Delay (T-C) ([1]; 90 mg/kg IP): > 41.0 days
Tumor Regression, Complete ([1]; 90 mg/kg IP): 5
Tumor Regression, Partial ([1]; 90 mg/kg IP): 0
Days to 2 Doublings ([1]; 135 mg/kg IP): > 49.0 days
Duration of regression, Med ([1]; 135 mg/kg IP): 35.7 days
Non-Specific Deaths / Total ([1]; 135 mg/kg IP): 1/5
Tumor Free Survival/Total ([1]; 135 mg/kg IP): 3/5
Tumor Delay (T-C) ([1]; 135 mg/kg IP): > 41.0 days
Tumor Regression, Complete ([1]; 135 mg/kg IP): 4
Tumor Regression, Partial ([1]; 135 mg/kg IP): 0
tumor growth delay, comparison of the two compounds ([1]; Table 1): identical tumor growth delay
accumulation over the 5 day treatment ([2]; 9 patients): accumulation of metabolite was observed in all 9 patients
time after end of infusion at which plasma levels equal those of penclomedine [2, 4]: ≤ 10 min
time present in plasma ([2]; clinical samples): > 24 h
ratio of demethylpenclomedine to penclomedine in plasma ([2]; final day of five day schedule, often): greater than 10
persistence in plasma ([2]; five day treatment schedule): persisted in the plasma for an extended period of time
plasma level time course [2, 5]: continues to increase with time
drug exposure relative to parent compound [2, 6]: several hundred times that of the parent compound
plasma level relative to peak plasma level of penclomedine [2, 6]: greater than ten times the peak plasma level of penclomedine
Median % ILS (dying mice only) (MX-1 mammary tumor cells; 90 mg/kg/dose IP): +60%
Tumor-Free Survival/Total (MX-1 mammary tumor cells; 90 mg/kg/dose IP): 0/5
Median % ILS (dying mice only) (MX-1 mammary tumor cells; [7]): +66%
Tumor-Free Survival/Total (MX-1 mammary tumor cells; [7]): 1/5
neurotoxicity versus metabolite levels [3]: the levels of this metabolite increased as toxicity due to penclomedine resolved
T-C (MX-1 mammary tumor; 90 mg/kg/dose IP, days 12-16): > 41.0 days
Tumor-Free Survival/Total (MX-1 mammary tumor; 90 mg/kg/dose IP, days 12-16): 3/5
T-C (MX-1 mammary tumor; 90 mg/kg/dose IP, days 15-19): > 37.2 days
Tumor-Free Survival/Total (MX-1 mammary tumor; 90 mg/kg/dose IP, days 15-19): 3/5
T-C (MX-1 mammary tumor; [8]): 36.7 days
Tumor-Free Survival/Total (MX-1 mammary tumor; [8]): 2/5
T-C, comparison of the two compounds (MX-1 mammary tumor; Table 2): nearly identical T-C
activity against MX-1 tumors (T-C) (MX-1 mammary tumor; Table 2): active against MX-1, colon, and renal tumors
T-C (HT29 colon tumor; 90 mg/kg/dose IP): 6.0 days
Tumor-Free Survival/Total (HT29 colon tumor; 90 mg/kg/dose IP): 0/5
activity against colon tumors (T-C) (HT29 colon tumor; Table 2): active against MX-1, colon, and renal tumors

COc1nc(C(Cl)(Cl)Cl)c(Cl)c(OC)c1Cl [Penclomedine, 3,5-dichloro-2,4-dimethoxy-6-(trichloromethyl)pyridine]
Days to 2 Doublings ([1]; 60 mg/kg IP): > 49.0 days
Non-Specific Deaths / Total ([1]; 60 mg/kg IP): 0/5
Tumor Free Survival/Total ([1]; 60 mg/kg IP): 4/5
Tumor Delay (T-C) ([1]; 60 mg/kg IP): > 41.0 days
Tumor Regression, Complete ([1]; 60 mg/kg IP): 5
Tumor Regression, Partial ([1]; 60 mg/kg IP): 0
Days to 2 Doublings ([1]; 90 mg/kg IP): > 49.0 days
Non-Specific Deaths / Total ([1]; 90 mg/kg IP): 0/5
Tumor Free Survival/Total ([1]; 90 mg/kg IP): 5/5
Tumor Delay (T-C) ([1]; 90 mg/kg IP): > 41.0 days
Tumor Regression, Complete ([1]; 90 mg/kg IP): 5
Tumor Regression, Partial ([1]; 90 mg/kg IP): 0
Days to 2 Doublings ([1]; 135 mg/kg IP): > 49.0 days
Non-Specific Deaths / Total ([1]; 135 mg/kg IP): 0/5
Tumor Free Survival/Total ([1]; 135 mg/kg IP): 5/5
Tumor Delay (T-C) ([1]; 135 mg/kg IP): > 41.0 days
Tumor Regression, Complete ([1]; 135 mg/kg IP): 5
Tumor Regression, Partial ([1]; 135 mg/kg IP): 0
survival rate, compared with 4-demethylpenclomedine ([1]; Table 1): slightly higher survival rate
tumor growth delay, comparison of the two compounds ([1]; Table 1): identical tumor growth delay
decline of plasma levels after infusion [2, 4]: rapidly declined in an apparently biexponential fashion
post-infusion plasma level [2, 9]: always less than μM
pre-infusion plasma level [2, 9]: barely detectable
plasma level time course [2, 5]: rapidly cleared from plasma
α of biexponential decay [2, 5]: 3.88 h⁻¹
k el ([2]; in vivo, iv, human plasma, single patient, FIG. 1, read-out: β of biexponential decay (converted)): 0.000127 s⁻¹
Median % ILS (dying mice only) (MX-1 mammary tumor cells; 90 mg/kg/dose IP): +88%
Tumor-Free Survival/Total (MX-1 mammary tumor cells; 90 mg/kg/dose IP): 0/5
Median % ILS (dying mice only) (MX-1 mammary tumor cells; 90 mg/kg/dose oral): +72%
Tumor-Free Survival/Total (MX-1 mammary tumor cells; 90 mg/kg/dose oral): 0/5
neurotoxicity versus metabolite levels [3]: neurotoxicity did not increase while levels of this metabolite increased to several times the plasma levels of the parent drug
neurotoxicity to mammals, especially humans ([3]; in vivo): neurotoxic to mammals, especially to humans
T-C (MX-1 mammary tumor; 135 mg/kg/dose IP, days 12-16): > 41.0 days
Tumor-Free Survival/Total (MX-1 mammary tumor; 135 mg/kg/dose IP, days 12-16): 5/5
T-C (MX-1 mammary tumor; 135 mg/kg/dose IP, days 13-17): > 38.5 days
Tumor-Free Survival/Total (MX-1 mammary tumor; 135 mg/kg/dose IP, days 13-17): 5/5
T-C (MX-1 mammary tumor; 135 mg/kg/dose IP, days 15-19): > 37.2 days
Tumor-Free Survival/Total (MX-1 mammary tumor; 135 mg/kg/dose IP, days 15-19): 5/5
T-C, comparison of the two compounds (MX-1 mammary tumor; Table 2): nearly identical T-C
survival rate, compared with 4-demethylpenclomedine (MX-1 mammary tumor; Table 2): slightly higher survival rate
T-C (HT29 colon tumor; 135 mg/kg/dose IP): 1.5 days
Tumor-Free Survival/Total (HT29 colon tumor; 135 mg/kg/dose IP): 0/5
